Molecular target: TRPM8 (Rattus norvegicus, UniProt Q8R455)
Test: Confirmation test of inhibitory effects on icilin-induced wet-dog shakes
Format: in vivo, female SD rats
Set-up: test compounds were orally administered to female SD rats; from tissue; host or cells: whole animal (female SD rats), endogenous channel
Conditions: icilin 1 mg/kg i.p. after 1 hour, shakes counted for 5 minutes
Method: Test compounds were dissolved in dimethylacetamide (wako), and 0.5% methylcellulose solution (wako) was added to make the solution or suspension containing 5% of dimethylacetamide. At a dose of 3 or 10 mg/kg/5 mL of test compounds were orally administered to female SD rats. After 1 hour, wet-dog shakes were induced by the intrapenitoneal injection of icilin (1 mg/kg) which was dissolved in polyethylene glycol 400 (wako). From 5 minutes after the administration of icilin, wet-dog shakes were counted for 5 minutes. For control example, vehicle (a mixture of dimethylacetamide (wako): 0.5% methylcellulose (wako)=5:95) was administrated similarly, and the number of wet-dog shakes was counted in the same manner. A percent inhibition of wet-dog shakes by test compound was calculated from the following formula: [1-(test compound wet-dog shake count/vehicle wet-dog shake count)]×100.

Chain of TRPM8 (Q8R455 whole entry): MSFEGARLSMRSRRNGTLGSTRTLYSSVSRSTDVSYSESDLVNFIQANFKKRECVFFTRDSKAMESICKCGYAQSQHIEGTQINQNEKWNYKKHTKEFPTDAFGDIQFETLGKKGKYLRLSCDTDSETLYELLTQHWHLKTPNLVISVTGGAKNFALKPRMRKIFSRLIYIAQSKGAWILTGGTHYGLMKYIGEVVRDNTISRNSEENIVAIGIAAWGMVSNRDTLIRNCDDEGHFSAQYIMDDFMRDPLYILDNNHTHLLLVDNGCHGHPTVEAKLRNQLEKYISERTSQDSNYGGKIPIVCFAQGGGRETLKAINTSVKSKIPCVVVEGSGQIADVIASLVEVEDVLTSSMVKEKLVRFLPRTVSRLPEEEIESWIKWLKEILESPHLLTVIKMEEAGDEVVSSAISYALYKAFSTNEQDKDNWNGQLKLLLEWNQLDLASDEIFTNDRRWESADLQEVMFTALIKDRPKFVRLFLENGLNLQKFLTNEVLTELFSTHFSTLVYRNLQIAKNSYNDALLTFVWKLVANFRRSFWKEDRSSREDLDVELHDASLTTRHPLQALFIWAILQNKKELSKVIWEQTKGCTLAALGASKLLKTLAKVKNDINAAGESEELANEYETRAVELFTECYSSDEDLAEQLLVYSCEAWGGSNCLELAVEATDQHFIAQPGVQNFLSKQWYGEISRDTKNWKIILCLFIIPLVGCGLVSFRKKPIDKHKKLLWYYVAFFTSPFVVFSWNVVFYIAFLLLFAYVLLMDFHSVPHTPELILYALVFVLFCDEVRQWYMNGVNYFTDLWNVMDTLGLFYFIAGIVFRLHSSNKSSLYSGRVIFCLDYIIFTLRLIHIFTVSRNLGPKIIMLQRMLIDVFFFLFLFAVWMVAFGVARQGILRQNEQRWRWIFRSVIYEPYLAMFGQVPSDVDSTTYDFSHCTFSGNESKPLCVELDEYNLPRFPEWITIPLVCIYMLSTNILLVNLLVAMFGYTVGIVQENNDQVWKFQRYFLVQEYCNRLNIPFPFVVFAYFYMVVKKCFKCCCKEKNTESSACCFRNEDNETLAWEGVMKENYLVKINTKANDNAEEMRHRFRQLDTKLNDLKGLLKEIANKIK

| Compound | % inhibition of Wet-Dog Shake (dose 3 mg/kg orally) | % inhibition of Wet-Dog Shake (dose 10 mg/kg orally) |
| --- | --- | --- |
| NC(=O)[C@@H](c1cccnc1)N(C(=O)c1ccccc1Cl)[C@@H]1CCc2c(F)cc(Cl)cc21 [Example 2-97LP, N-[(R)-carbamoylpyridin-3-ylmethyl]-2-chloro-N-[(R)-6-chloro-4-fluoroindan-1-yl]benzamide] | 35% |  |
| COc1ccccc1C(=O)N([C@@H]1CCc2c(F)cc(Cl)cc21)[C@@H](C(N)=O)c1cccnc1 [Example 2-118LP, N-[(R)-carbamoylpyridin-3-ylmethyl]-N-[(R)-6-chloro-4-fluoroindan-1-yl]-2-methoxybenzamide] | 62% |  |
| CSc1ncccc1C(=O)N([C@@H]1CCc2c(F)cc(Cl)cc21)[C@@H](C(N)=O)c1ccccc1 [Example 2-128LP, N-[(R)-carbamoylphenylmethyl]-N-[(R)-6-chloro-4-fluoroindan-1-yl]-2-(methylsulfanyl)nicotinamide] | 65% |  |
| NC(=O)[C@@H](c1cccnc1)N(C(=O)c1ccccc1)[C@@H]1CCc2c(F)cc(F)cc21 [Example 2-76LP, N-[(R)-carbamoylpyridin-3-ylmethyl]-N-[(R)-4,6-difluoroindan-1-yl]benzamide] |  | 95% |
| NC(=O)[C@@H](c1ccccc1)N(C(=O)c1cccnc1)[C@@H]1CCc2ccc(OC(F)F)cc21 [Example 2-26LP, N-[(R)-carbamoylphenylmethyl]-N-[(R)-6-difluoromethoxyindan-1-yl]nicotinamide] |  | 83% |
| NC(=O)[C@@H](c1ccccc1)N(C(=O)c1cncs1)[C@@H]1CCc2ccc(Cl)cc21 [Example 2-71LP, N-[(R)-carbamoylphenylmethyl]-N-[(R)-6-chloroindan-1-yl]thiazole-5-carboxamide] |  | 83% |
| NC(=O)[C@@H](c1cccnc1)N(C(=O)c1c(O)cccc1F)[C@@H]1CCc2c(F)cc(Cl)cc21 [Example 19-15LP, N-[(R)-carbamoylpyridin-3-ylmethyl]-N-[(R)-6-chloro-4-fluoroindan-1-yl]-2-fluoro-6-hydroxybenzamide] |  | 72% |
| Cc1ncccc1C(=O)N([C@@H]1CCc2ccc(Cl)cc21)[C@@H](C(N)=O)c1ccccc1 [Example 2-137LP, N-[(R)-carbamoylphenylmethyl]-N-[(R)-6-chloroindan-1-yl]-2-methylnicotinamide] | 53% |  |
| COc1ncccc1C(=O)N([C@@H]1CCc2c(F)cc(F)cc21)[C@@H](C(N)=O)c1ccccc1 [Example 2-36LP, N-[(R)-carbamoylphenylmethyl]-N-[(R)-4,6-difluoroindan-1-yl]-2-methoxynicotinamide] | 74% |  |
| Cc1ncccc1C(=O)N([C@@H]1CCc2c(F)cc(Cl)cc21)[C@@H](C(N)=O)c1cccc(F)c1 [Example 2-161LP, N-[(R)-carbamoyl-(3-fluorophenyl)methyl]-N-[(R)-6-chloro-4-fluoroindan-1-yl]-2-methylnicotinamide] | 42% |  |
| Cc1ncccc1C(=O)N([C@@H]1CCc2c(F)cc(Cl)cc21)[C@@H](C(N)=O)c1cccc(N(C)C)c1 [Example 18-13LP, N-[(R)-carbamoyl-(3-dimethylaminophenyl)methyl]-N-[(R)-6-chloro-4-fluoroindan-1-yl]-2-methylnicotinamide] |  | 86% |
| Cc1ncsc1C(=O)N([C@@H]1CCc2ccc(Cl)cc21)[C@@H](C(N)=O)c1ccccc1 [Example 2-88LP, N-[(R)-carbamoylphenylmethyl]-N-[(R)-6-chloroindan-1-yl]-4-methylthiazole-5-carboxamide] | 46% |  |
| Cc1cc(F)c2c(c1)[C@H](N(C(=O)c1cccnc1)[C@@H](C(N)=O)c1ccccc1)CC2 [Example 2-40LP, N-[(R)-carbamoylphenylmethyl]-N-[(R)-4-fluoro-6-methylindan-1-yl]nicotinamide] |  | 95% |
| Cn1nccc1C(=O)N([C@@H]1CCc2c(F)cc(Cl)cc21)[C@@H](C(N)=O)c1ccccc1 [Example 2-133LP, N-[(R)-carbamoylphenylmethyl]-N-[(R)-6-chloro-4-fluoroindan-1-yl]-2-methyl-2H-pyrazole-3-carboxamide] | 55% |  |

Source: US9458092B2, “α-Substituted glycinamide derivative” (KISSEI PHARMACEUTICAL CO., LTD., priority 2013, dated 2016)
